Inhibition data for one molecule are collected here from US20150072943A1, “MIXTURE OF POLAR G[…] USE IN THE TREATMENT OF PAIN AND COPD” (SANOFI, priority 2012, published 2015).

Structures are written as SMILES.

The subject of assay [1] is release of TNFalpha induced by E. Coli-LPS in human bronchus parenchyma tissue culture. Briefly: LPS-induced TNFalpha release in human bronchus parenchyma tissue culture. Type of assay: cell-based. From the text: Human parenchymal lung tissue was obtained from patients undergoing resection for carcinoma at San Gerardo Hospital, Monza, Italy. Patients had not received radiotherapy or chronic treatment with steroids, opioids or chemotherapy. All specimens of parenchymal tissue were obtained from sites distant from the tumour. The study was approved by the institutional ethics committee of San Gerardo hospital Monza Italy and all volunteers gave informed consent. Resected lung tissue was dissected free of tumour, large airways, pleura and visible blood vessels and finely chopped using dissecting scissors, into 2 mm fragments during several washes with Kreb's buffer (([…]: NaCl 118.4, KCl 4.7, CaCl2 2.5, KH2PO4 1.2, NaHCO3 25, glucose 11.7). Six explants (total weight approx. 30 mg) were incubated in culture bioreactor (Synthecon/NASA USA) with RPMI-1640 medium containing 1% penicillin, 1% streptomycin, and 1% gentamycin at 37° C. in 5% carbon dioxide/air for 16 hours. Tissue was then either stimulated with 100 ng/ml LPS (Sigma-Aldrich) or maintained in cell culture media alone for 4 hours. For neutralization of TNF, tissue was incubated with 0.01, 0.1, or 1 μM of VB3323 for 1 hr prior to stimulation with 100 ng/ml LPS. […] The levels of TNFalpha in the supernatant were measured by enzyme-linked immunosorbent assay (ELISA) and the concentration corrected for tissue weight. […]

Assay [2] concerns release of TNFalpha induced by E Coli LPS in mouse bronchus parenchyma tissue culture. The experiment in a line: LPS-induced TNFalpha release in mouse bronchus parenchyma tissue culture. Type of assay: cell-based. How it is done: The animals (BALB/c male mice, 20-22 g body weight) were sacrificed by cervical dislocation. The thoracic cage was opened cutting the ribs. Clamping the heart with surgical tweezers, lungs and heart were dissected from the thoracic cavity using surgical scissors and putted in cold Krebs solution ([…]: NaCl 118.4, KCl 4.7, CaCl2 2.5, KH2PO4 1.2, NaHCO3 25, glucose 11.7). Large airways and visible blood vessels were dissected. The lungs were divided in fragments of 30 mg (˜5 pieces/mouse) and finely chopped (six pieces of ˜2 mm3 each fragment) using a scalpel. Six explants (total weight 30 mg) were incubated per well (2.0 cm2) of a 24 well plate with 1 ml of RPMI-1640 medium (RPMI-1640+antibiotic antimycotic solution 100x, Sigma-Aldrich) at 37° C. in 5% carbon dioxide/air for 16 hours. Then the medium was replaced with fresh medium and the tissue was treated for 1 hour with compound. After one hour, the tissue was stimulated with 100 ng/ml LPS E. Coli 055:B5 (Sigma-Aldrich). 4 hour after LPS stimulation, supernatant was harvested and stored at −80° C. until ELISA analysis. Three of six tissue explants were fixed in 10% formalin buffer for histological/immunohistochemical analysis. The other three tissue explants were put in RNA-later buffer overnight and then stored at −80° C. […]

The term inhibition denotes the percentage by which the read-out fell short of the control. The low end stands for a response near the control, the high end for a response far below the control. Regarding `C[C@@H]1C[C@H]2[C@@H]3CCC4=CC(=O)C=C[C@]4(C)[C@@]3(F)[C@@H](O)C[C@]2(C)[C@@]1(O)C(=O)CO` [Dexamethasone], the figures for the inhibition at 1 µM in assay [1] and in assay [2] were 69% and 67%, respectively.
